# In the supplement of paper PMC9013687:
# ± gives the standard deviation of the averaged measurements.
# Legend:
# Danio rerio embryo [1] = experiment: EC10 Pericard size_Increase; higher = less potent
# Experimental: (§1)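 Zebrafish embryos (UFZ-OBI strain) were exposed from 2 hpf for 48 h (2 dpf) or 96 h (4 dpf) at 28 °C; spontaneous tail coiling was scored at 25 hpf. Morphological features from automated image analysis (FishInspector), heart rate and locomotor response were fitted with drc models. Quantal endpoints were dichotomised at 2.5 SD from controls and fitted with a log-logistic model; heart rate, pigmentation and STC were normalised to the replicate control mean. Betamethasone was tested as betamethasone dipropionate, diflorasone as diflorasone diacetate.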
# Danio rerio embryo [2] = experiment: spontaneous tail coiling frequency (coils/min/embryo); higher = more spontaneous movement; details: 25 hpf
# Experimental: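 Spontaneous tail coilings of zebrafish embryos exposed from 2 hpf were recorded at 24-25 hpf in 1-min videos and detected by a KNIME workflow from grey-value variance. Betamethasone was tested as the dipropionate, diflorasone as the diacetate.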
# Danio rerio embryo [3] = tested on: Danio rerio embryo
# Experimental: as §1
# Danio rerio embryo [4] = details: exposure time: 4 dpf
# Experimental: as §1
# Danio rerio embryo [5] = experiment: EC10 Bladder size_Decrease; higher = less potent; details: exposure time: 4 dpf
# Experimental: as §1
# Danio rerio embryo [6] = experiment: EC20 Otolith-eye distance_Decrease; higher = less potent; details: exposure time: 4 dpf
# Experimental: as §1
# Danio rerio embryo [7] = experiment: EC50 Bladder size_Decrease; details: exposure time: 4 dpf
# Experimental: as §1
# Danio rerio embryo [8] = experiment: EC10 Otolith-eye distance_Decrease; higher = less potent; details: exposure time: 4 dpf
# Experimental: as §1
# Danio rerio embryo [9] = experiment: EC20 Pericard size_Increase; higher = less potent
# Experimental: as §1
# Danio rerio embryo [10] = experiment: EC20 Bladder size_Decrease; higher = less potent; details: exposure time: 4 dpf
# Experimental: as §1
# Danio rerio embryo [11] = experiment: EC20 LMR dark; higher = less potent; details: exposure time: 4 dpf
# Experimental: as §1
# Danio rerio embryo [12] = experiment: EC50 Body length_Decrease
# Experimental: as §1
# Danio rerio embryo [13] = experiment: EC20 Any effect; higher = less potent
# Experimental: as §1
# Danio rerio embryo [14] = experiment: EC50 Eye-jaw distance_Decrease; details: exposure time: 4 dpf
# Experimental: as §1
# Danio rerio embryo [15] = experiment: EC10 Eye-jaw distance_Decrease; higher = less potent; details: exposure time: 4 dpf
# Experimental: as §1
# Danio rerio embryo [16] = experiment: EC10 Head trunk angle_Decrease; higher = less potent; details: exposure time: 2 dpf
# Experimental: as §1
# Danio rerio embryo [17] = experiment: EC10 Curvature_Increase; higher = less potent; details: exposure time: 2 dpf
# Experimental: as §1
# Danio rerio embryo [18] = experiment: EC10 Yolk sac size_Increase; higher = less potent; details: exposure time: 4 dpf
# Experimental: as §1
# Danio rerio embryo [19] = experiment: EC10 Body length_Decrease; higher = less potent
# Experimental: as §1
# Danio rerio embryo [20] = experiment: EC20 Eye-jaw distance_Decrease; higher = less potent; details: exposure time: 4 dpf
# Experimental: as §1
# Danio rerio embryo [21] = experiment: EC50 Pericard size_Increase
# Experimental: as §1
# Danio rerio embryo [22] = experiment: EC50 Curvature_Increase; details: exposure time: 2 dpf
# Experimental: as §1
# Danio rerio embryo [23] = experiment: EC20 Yolk sac size_Increase; higher = less potent; details: exposure time: 4 dpf
# Experimental: as §1
# Danio rerio embryo [24] = experiment: EC50 Otolith-eye distance_Decrease; details: exposure time: 4 dpf
# Experimental: as §1
# Danio rerio embryo [25] = experiment: EC20 Curvature_Increase; higher = less potent; details: exposure time: 2 dpf
# Experimental: as §1
# Danio rerio embryo [26] = experiment: EC10 Any effect; higher = less potent
# Experimental: as §1
# Danio rerio embryo [27] = experiment: EC50 Yolk sac size_Increase; details: exposure time: 4 dpf
# Experimental: as §1
# Danio rerio embryo [28] = experiment: EC20 Body length_Decrease; higher = less potent
# Experimental: as §1
# Danio rerio embryo [29] = experiment: EC10 LMR dark; higher = less potent; details: exposure time: 4 dpf
# Experimental: as §1
compound,measurement,setting,value
CSc1nc2cc(Cl)c(Oc3cccc(Cl)c3Cl)cc2[nH]1 [Triclabendazole],EC10 Pericard size Increase,Danio rerio embryo [1]; exposure time: 2 dpf,0.651 µM
same,EC10 Pericard size Increase,Danio rerio embryo [1]; exposure time: 4 dpf,0.772 µM
same,spontaneous tail coiling frequency,Danio rerio embryo [2]; 0.139 µM,0.65
same,spontaneous tail coiling frequency,Danio rerio embryo [2]; 0.488205 µM,1.35
same,spontaneous tail coiling frequency,Danio rerio embryo [2]; 0.577 µM,1.03
same,spontaneous tail coiling frequency,Danio rerio embryo [2]; 0.732308 µM,1.05
same,spontaneous tail coiling frequency,Danio rerio embryo [2]; 0.835 µM,1.49 ± 0.096
same,spontaneous tail coiling frequency,Danio rerio embryo [2]; 1.086 µM,1.13
same,spontaneous tail coiling frequency,Danio rerio embryo [2]; 1.09846 µM,0.655
same,spontaneous tail coiling frequency,Danio rerio embryo [2]; 1.412 µM,0.667 ± 0.38
same,spontaneous tail coiling frequency,Danio rerio embryo [2]; 1.64769 µM,1.2
same,spontaneous tail coiling frequency,Danio rerio embryo [2]; 1.835 µM,0.75 ± 0.38
same,spontaneous tail coiling frequency,Danio rerio embryo [2]; 2.386 µM,0.583 ± 0.35
same,spontaneous tail coiling frequency,Danio rerio embryo [2]; 2.47154 µM,0.315
same,spontaneous tail coiling frequency,Danio rerio embryo [2]; 3.70731 µM,0.06
same,EC50 Any effect,Danio rerio embryo [3]; exposure time: 2 dpf,1.34 µM
same,EC50 Any effect,Danio rerio embryo [3]; exposure time: 4 dpf,0.556 µM
same,EC50 Pigmentation increase,Danio rerio embryo [3]; exposure time: 4 dpf,0.69 µM
same,EC50 STC decrease,Danio rerio embryo [3]; exposure time: 25 h,0.076 µM
same,EC50 LMR dark,Danio rerio embryo [4],0.403 µM
same,EC10 Bladder size Decrease,Danio rerio embryo [5],0.462 µM
same,EC20 Otolith-eye distance Decrease,Danio rerio embryo [6],0.622 µM
same,EC50 Bladder size Decrease,Danio rerio embryo [7],0.497 µM
same,EC10 Otolith-eye distance Decrease,Danio rerio embryo [8],0.538 µM
same,EC20 Pericard size Increase,Danio rerio embryo [9]; exposure time: 2 dpf,1.01 µM
same,EC20 Pericard size Increase,Danio rerio embryo [9]; exposure time: 4 dpf,0.775 µM
same,EC20 Bladder size Decrease,Danio rerio embryo [10],0.475 µM
same,EC20 LMR dark,Danio rerio embryo [11],0.24 µM
same,EC50 Body length Decrease,Danio rerio embryo [12]; exposure time: 2 dpf,1.27 µM
same,EC50 Body length Decrease,Danio rerio embryo [12]; exposure time: 4 dpf,1.09 µM
same,EC20 Any effect,Danio rerio embryo [13]; exposure time: 2 dpf,1.04 µM
same,EC20 Any effect,Danio rerio embryo [13]; exposure time: 4 dpf,0.411 µM
same,EC50 Eye-jaw distance Decrease,Danio rerio embryo [14],0.731 µM
same,EC10 Eye-jaw distance Decrease,Danio rerio embryo [15],0.695 µM
same,EC10 Head trunk angle Decrease,Danio rerio embryo [16],1.39 µM
same,EC10 Curvature Increase,Danio rerio embryo [17],1.71 µM
same,EC10 Yolk sac size Increase,Danio rerio embryo [18],0.458 µM
same,EC10 Body length Decrease,Danio rerio embryo [19]; exposure time: 2 dpf,0.672 µM
same,EC10 Body length Decrease,Danio rerio embryo [19]; exposure time: 4 dpf,0.586 µM
same,EC20 Eye-jaw distance Decrease,Danio rerio embryo [20],0.708 µM
same,EC50 Pericard size Increase,Danio rerio embryo [21]; exposure time: 2 dpf,2.14 µM
same,EC50 Pericard size Increase,Danio rerio embryo [21]; exposure time: 4 dpf,0.782 µM
same,EC50 Curvature Increase,Danio rerio embryo [22],1.98 µM
same,EC20 Yolk sac size Increase,Danio rerio embryo [23],0.533 µM
same,EC50 Otolith-eye distance Decrease,Danio rerio embryo [24],0.796 µM
same,EC20 Curvature Increase,Danio rerio embryo [25],1.81 µM
same,EC10 Any effect,Danio rerio embryo [26]; exposure time: 2 dpf,0.893 µM
same,EC10 Any effect,Danio rerio embryo [26]; exposure time: 4 dpf,0.344 µM
same,EC50 Yolk sac size Increase,Danio rerio embryo [27],0.691 µM
same,EC20 Body length Decrease,Danio rerio embryo [28]; exposure time: 2 dpf,0.85 µM
same,EC20 Body length Decrease,Danio rerio embryo [28]; exposure time: 4 dpf,0.738 µM
same,EC10 LMR dark,Danio rerio embryo [29],0.178 µM
CCCCOC(=O)[C@@H](C)Oc1ccc(Oc2ccc(C(F)(F)F)cn2)cc1 [fluazifop-p-butyl],EC10 Pericard size Increase,Danio rerio embryo [1]; exposure time: 2 dpf,1.84 µM
same,EC10 Pericard size Increase,Danio rerio embryo [1]; exposure time: 4 dpf,0.485 µM
same,spontaneous tail coiling frequency,Danio rerio embryo [2]; 1.29 µM,1.94
same,spontaneous tail coiling frequency,Danio rerio embryo [2]; 1.93 µM,1.98 ± 0.98
same,spontaneous tail coiling frequency,Danio rerio embryo [2]; 2.9 µM,2.62 ± 0.97
same,spontaneous tail coiling frequency,Danio rerio embryo [2]; 4.35 µM,1.95 ± 0.76
same,spontaneous tail coiling frequency,Danio rerio embryo [2]; 5.2 µM,0.71
same,spontaneous tail coiling frequency,Danio rerio embryo [2]; 6.52 µM,1.41 ± 0.83
same,spontaneous tail coiling frequency,Danio rerio embryo [2]; 9.78 µM,1.62 ± 0.014
same,EC50 Any effect,Danio rerio embryo [3]; exposure time: 2 dpf,3.1 µM
same,EC50 Otolith,Danio rerio embryo [3]; exposure time: 2 dpf,9.45 µM
same,EC50 Any effect,Danio rerio embryo [3]; exposure time: 4 dpf,1.54 µM
same,EC50 LMR dark,Danio rerio embryo [4],2.38 µM
same,EC10 Bladder size Decrease,Danio rerio embryo [5],0.78 µM
same,EC20 Otolith-eye distance Decrease,Danio rerio embryo [6],0.964 µM
same,EC50 Bladder size Decrease,Danio rerio embryo [7],1.51 µM
same,EC10 Otolith-eye distance Decrease,Danio rerio embryo [8],0.629 µM
same,EC20 Pericard size Increase,Danio rerio embryo [9]; exposure time: 2 dpf,2.94 µM
same,EC20 Pericard size Increase,Danio rerio embryo [9]; exposure time: 4 dpf,0.834 µM
same,EC20 Bladder size Decrease,Danio rerio embryo [10],0.994 µM
same,EC20 LMR dark,Danio rerio embryo [11],0.767 µM
same,EC50 Body length Decrease,Danio rerio embryo [12]; exposure time: 2 dpf,3.7 µM
same,EC50 Body length Decrease,Danio rerio embryo [12]; exposure time: 4 dpf,2.67 µM
same,EC20 Any effect,Danio rerio embryo [13]; exposure time: 2 dpf,0.942 µM
same,EC20 Any effect,Danio rerio embryo [13]; exposure time: 4 dpf,0.624 µM
same,EC50 Eye-jaw distance Decrease,Danio rerio embryo [14],2.36 µM
same,EC10 Eye-jaw distance Decrease,Danio rerio embryo [15],0.645 µM
same,EC10 Head trunk angle Decrease,Danio rerio embryo [16],1.74 µM
same,EC10 Curvature Increase,Danio rerio embryo [17],2.28 µM
same,EC10 Yolk sac size Increase,Danio rerio embryo [18],2.23 µM
same,EC10 Body length Decrease,Danio rerio embryo [19]; exposure time: 2 dpf,1.09 µM
same,EC10 Body length Decrease,Danio rerio embryo [19]; exposure time: 4 dpf,0.702 µM
same,EC20 Eye-jaw distance Decrease,Danio rerio embryo [20],1.04 µM
same,EC50 Pericard size Increase,Danio rerio embryo [21]; exposure time: 2 dpf,6.56 µM
same,EC50 Pericard size Increase,Danio rerio embryo [21]; exposure time: 4 dpf,2.11 µM
same,EC50 Curvature Increase,Danio rerio embryo [22],6.37 µM
same,EC20 Yolk sac size Increase,Danio rerio embryo [23],2.62 µM
same,EC50 Otolith-eye distance Decrease,Danio rerio embryo [24],2 µM
same,EC20 Curvature Increase,Danio rerio embryo [25],3.34 µM
same,EC10 Any effect,Danio rerio embryo [26]; exposure time: 2 dpf,0.469 µM
same,EC10 Any effect,Danio rerio embryo [26]; exposure time: 4 dpf,0.368 µM
same,EC50 Yolk sac size Increase,Danio rerio embryo [27],3.42 µM
same,EC20 Body length Decrease,Danio rerio embryo [28]; exposure time: 2 dpf,1.71 µM
same,EC20 Body length Decrease,Danio rerio embryo [28]; exposure time: 4 dpf,1.15 µM
same,EC10 LMR dark,Danio rerio embryo [29],0.362 µM
